Test results published in US7649002B2, “(3,5-dimethylpiperidin-1yl)(4-phenylpyrrolidin-3-yl)methanone derivatives as MCR4 agonists” (Pfizer Inc, priority 2004, dated 2010).

Assays:
[1] = target: T1, human MCR1 receptor (Homo sapiens, UniProt Q01726); assay: MCR1 standard functional assay (Protocol A): cAMP AlphaScreen in HEK cells; assay type: cell-based; conditions: for EC50: Protocol A
T1 construct: expressed in transfected cells
Method: (§1) Stimulation of adenylate cyclase following receptor activation is a widely used measure of functional activity for a number of receptor systems. The functional assay to measure cyclic AMP (cAMP) utilises human embryonic kidney (HEK) cells that stably express the human melanocortin MCR1, MCR3 or MCR4 receptor. Activation of MCR1, MCR3 or MCR4 receptors stimulates adenylate cyclase, generating cAMP, which is measured using AlphaScreen™ (PerkinElmer assay kits.
(§2) The AlphaScreen™ cAMP assay kit consists of ‘donor beads’, ‘acceptor beads’, and biotinylated cAMP which links the different beads together. Excitation of this linked complex at […] in the Fusion™-α microplate analyser results in light emission between […].
(§3) (i) MCR1. MCR3 and MCR4 Standard Functional Assay Methodology [Assay Protocol A, B AND C Respectively]
(§4) Determination of activity against the human MCR1, MCR3 and MCR4 receptor subtypes was carried out for compounds according to the present invention using three immortalised human embryonic kidney (HEK) cell lines that had been biologically engineered to express the human melanocortin MCR1, MCR3 or MCR4 receptor subtypes. These cell lines were engineered using protocols akin to those outlined by Gouarderes et al (Gouarderes, C., (2002) Neuroscience, 115(2); 349-361).
(§5) Such-compound-induced activation of these MCR1, MCR3 or MCR4 receptors lead to the stimulation of the cellular enzyme adenylate cyclase, which in turn lead to the cellular generation, and intra-cellular accumulation, of cyclic adenosine monophosphate (cAMP). […] Intracellular levels of cAMP were quantified using the commercially available AlphaScreen™ assay kits from PerkinElmer. A detailed assay protocol and an explanation of the concept underlying this kit is available through the PerkinElmer website (www.perkinelmer.com). The protocol listed below provides a summary this information.
(§6) The quantity of intracellular cAMP produced by compound-induced activation of the MCR1, MCR3 and MCR4 receptors in these three cell lines was measured using a Fusion™-α microplate analyser set to stimulate at a wavelength of 680 nm and to measure the energy emitted at wave lengths between […]. Compound-induced increases in MCR1, MCR3 or MCR4 receptor activation were subsequently quantified as a decrease in the quantity of light emitted at wavelengths between […]. Data analysis was subsequently performed using a curve-fitting program and the apparent potency of the test compound (expressed as an EC50 and defined as the effective compound concentration that elicited 50% of the maximum compound-induced response) extrapolated from the fitted curve.
(§7) Stimulation buffer (as per AlphaScreen™ protocol): HBSS supplemented with 0.5 mM IBMX, 5 mM HEPES, 0.1% (w/v) BSA and 10 mM MgCl2.
(§8) Lysis buffer (as per AlphaScreen™ protocol): 5 mM HEPES solution supplemented with 0.1% (w/v) BSA and 0.3% (v/v) Tween-20.
(§9) Detection mix (as per AlphaScreen™ protocol): Lysis buffer supplemented with the biotinylated cAMP (10 nM) and Donor beads (10 μg/ml) as supplied in the AlphaScreenT cAMP assay kit.
(§10) For the MCR1, MCR3 and MCR4 standard functional assay methodologies compounds were initially dissolved in DMSO to give a compound concentration of 4 mM and then further diluted for the assay in stimulation buffer to give actual concentrations 2-fold greater than that desired as the final assay concentration.
(§11) The three HEK cell lines, as detailed hereinbefore, expressing the human MCR1, MCR3 or MCR4 receptor subtypes were grown in T225 vent cap flasks containing 50 ml of growth medium (DMEM supplemented with 10% (v/v) FCS, 2 mM L-Glutamine, 25 mM HEPES and 1.0 mg/ml Geneticin) and maintained in a cell incubator at a temperature of 37° C. and in an environment containing 5% CO2. Cells were harvested when they reached 80-90% confluency by first removing the existing growth medium and then washing with PBS that had been pre-warmed to a temperature of 37° C. […]

[2] = target: T2, human MCR4 receptor (Homo sapiens, UniProt P32245); assay: MCR4 standard functional assay (Protocol C): cAMP AlphaScreen in HEK cells; assay type: cell-based; conditions: Table 5
T2 construct: expressed in transfected cells
Method: as §1, §2, §3, §4, §5, §6
Stimulation buffer (as per AlphaScreen™ protocol): HBSS supplemented with 0.5 mM IBMX, 5 mM HEPES, 0.1% (w/v) BSA and 10 mM MgCl2. […]

[3] = target: T3, human MCR3 receptor (Homo sapiens, UniProt P41968); assay: MCR3 standard functional assay (Protocol B): cAMP AlphaScreen in HEK cells; assay type: cell-based; conditions: Table 5
T3 construct: expressed in transfected cells
Method: as §1, §2, §3, §4, §5, §6, §7, §8, §9, §10, §11

[4] = system: spontaneous penile erection in the conscious rat; assay: Spontaneous penile erection in the conscious rat (telemetric intracavernosal pressure); assay type: in vivo; conditions: for maximum effective dose: s.c.
Method: MCR4 in vivo data for the compound of Example 1 was assessed by selective activation of melanocortin MCR4 receptors using the methodology assessing spontaneous penile erection in the conscious rat.
Erectile responses were recorded by measuring intracavernosal pressure using a surgically implanted telemetric device (TA11PA-C40, 8 mm catheter, modified 3 mm tip, available from Data Sciences International Inc.). An increase in intracavernosal pressure is indicative of penile erection, as an increase in intracavernosal pressure is an essential hemodynamic event during the initiation and maintenance of penile erection. The specific details of the surgical procedures, data acquisition and analysis used herein to measure increases in intracavernosal pressure can be found in detail in Bernabe J., Rampin O., Sachs B. D., Giuliano F., “Intracavernous pressure during erection in rats: an integrative approach based on telemetric recording”, Am. J. Physiol. 1999 February; 276 (2 Pt 2):R441-9.
The test animals (rats) (during the dark cycle) were habituated for 18 hours before baseline assessment of erectile function. Prior to administration of the test agent the baseline erectile activity (B) was assessed for the vehicle for 10 minutes using telemetric recording of intracavernosal pressure. Following subcutaneous administration of the compound of Example 1 (in the same vehicle), penile erections were assessed (using telemetric recording of intracavernosal pressure) over 10 minute periods, at intervals of 30, 60, and 90 minutes post dosage.

T1 sequence (Q01726 whole entry): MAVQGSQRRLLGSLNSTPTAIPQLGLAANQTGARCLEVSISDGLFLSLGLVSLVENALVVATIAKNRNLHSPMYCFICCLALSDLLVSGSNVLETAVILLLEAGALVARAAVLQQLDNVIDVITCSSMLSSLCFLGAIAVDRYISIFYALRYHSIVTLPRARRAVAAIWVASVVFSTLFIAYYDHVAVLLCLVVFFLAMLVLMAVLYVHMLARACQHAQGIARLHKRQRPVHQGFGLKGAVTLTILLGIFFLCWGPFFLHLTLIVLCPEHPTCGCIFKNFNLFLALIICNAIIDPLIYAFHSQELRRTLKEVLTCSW
T3 sequence (P41968 whole entry): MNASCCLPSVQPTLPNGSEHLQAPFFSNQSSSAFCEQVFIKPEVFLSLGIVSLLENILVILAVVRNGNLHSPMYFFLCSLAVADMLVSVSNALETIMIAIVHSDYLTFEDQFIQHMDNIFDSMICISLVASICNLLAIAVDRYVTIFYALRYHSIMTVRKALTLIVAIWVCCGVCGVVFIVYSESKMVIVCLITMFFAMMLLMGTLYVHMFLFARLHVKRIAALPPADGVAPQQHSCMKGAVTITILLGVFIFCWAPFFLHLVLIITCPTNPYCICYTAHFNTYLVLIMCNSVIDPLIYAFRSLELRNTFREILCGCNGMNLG
T2 sequence (P32245 whole entry): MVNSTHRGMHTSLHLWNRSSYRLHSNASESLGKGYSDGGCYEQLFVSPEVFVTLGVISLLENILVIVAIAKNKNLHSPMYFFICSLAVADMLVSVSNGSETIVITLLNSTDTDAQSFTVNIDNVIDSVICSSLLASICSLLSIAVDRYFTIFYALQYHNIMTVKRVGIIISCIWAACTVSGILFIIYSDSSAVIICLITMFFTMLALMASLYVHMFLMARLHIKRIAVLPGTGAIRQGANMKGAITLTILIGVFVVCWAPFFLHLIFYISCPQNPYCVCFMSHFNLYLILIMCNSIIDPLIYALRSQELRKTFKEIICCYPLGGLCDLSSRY

| SMILES | Selectivity MCR1/MCR4 ([1]; Table 6, MCR4 by Protocol E) | EC50 ([1]; Table 6) [µM] | also measured |
| --- | --- | --- | --- |
| C[C@@H]1CN(C(=O)[C@@H]2CN(C(C)(C)C)C[C@H]2c2ccc(F)cc2F)C[C@H](C)[C@@]1(O)c1ccccc1 [Example 1, (3R,4R,5S)-1-{[(3S,4R)-1-tert-Butyl-4-(24-difluorophenyl)pyrrolidin-3-yl]carbonyl}-3,5-dimethyl-4-phenylpiperidin-4-ol] | 125 |  | EC50 [2]: 0.025 µM; Selectivity MCR3/MCR4 ([3]; MCR4 by Protocol C): 56; EC50 ([3]; Protocol B): 1.39 µM; Selectivity MCR1/MCR4 ([1]; Table 5, MCR4 by Protocol C): 324; EC50 ([1]; Table 5): 8.1 µM; maximum effective dose ([4]; additional, more detailed study, FIG. 2, conscious rat): 10 µg/kg; erectile activity (number of erections over a 10 minute period) versus baseline (treatment vehicle) ([4]; additional, more detailed study, FIG. 2, starting 30 minutes post dosage, 1, 10 and 100 μg/kg s.c.): increases the erectile activity versus baseline erectile activity; number of penile erections ([4]; conscious rat, subcutaneously (s.c.)): dose dependent increase in the number of penile erections; maximum effective dose ([4]; preliminary study, FIG. 1, conscious rat): 1 µg/kg; erectile activity (number of erections over a 10 minute period) versus baseline ([4]; preliminary study, FIG. 1, starting 60 minutes post dosage, 1, 10 and 100 μg/kg s.c.): increases the erectile activity versus baseline erectile activity |
| CC(C)N1C[C@@H](C(=O)N2C[C@@H](C)[C@](O)(c3ccccc3)[C@@H](C)C2)[C@H](c2ccc(F)cc2F)C1.Cl [Example 6, (3R,4R,5S)-1-{[(3S,4R)-4-(2,4-Difluorophenyl)-1-isopropylpyrrolidin-3-yl]carbonyl}-3,5-dimethyl-4-phenylpiperidin-4-ol hydrochloride] | 28 | 0.541 |  |
| C[C@@H]1CN(C(=O)[C@@H]2CN(C(C)(C)C)C[C@H]2c2ccc(F)cc2F)C[C@H](C)[C@@]1(O)c1ccccc1.Cl [Example 5, (3R,4R,5S)-1-{[(3S,4R)-1-tert-Butyl-4-(2,4-difluorophenyl)pyrrolidin-3-yl]carbonyl}-3,5-dimethyl-4-phenylpiperidin-4-ol hydrochloride] | 125 | 1.2 |  |

More lines, main results first:

| Selectivity MCR1/MCR4 ([1]; Table 6, MCR4 by Protocol E) | EC50 ([1]; Table 6) [µM] | SMILES | also measured |
| --- | --- | --- | --- |
| 847 | 1.27 | C[C@@H]1CN(C(=O)[C@@H]2CN(c3cccnn3)C[C@H]2c2ccc(F)cc2F)C[C@H](C)[C@@]1(O)c1ccccc1.Cl [Example 35, (3R,4R,5S)-1-{[(3S,4R)-4-(2,4-difluorophenyl)-1-pyridazin-3-ylpyrrolidin-3-yl]carbonyl}-3,5-dimethyl-4-phenylpiperidin-4-ol hydrochloride] |  |
| 311 | 8.4 | C[C@@H]1CN(C(=O)[C@@H]2CN(C(C)(C)C)C[C@H]2c2ccc(F)cc2F)C[C@H](C)[C@@]1(O)c1ccc(Cl)cc1.Cl [Example 13, (3R,4R,5S)-1-{[(3S,4R)-1-tert-butyl-4-(2,4-difluorophenyl)pyrrolidin-3-yl]carbonyl}-4-(4-chlorophenyl)-3,5-dimethylpiperidin-4-ol hydrochloride] |  |
| 2969 | 10.7 | C[C@@H]1CN(C(=O)[C@@H]2CN(c3ccccn3)C[C@H]2c2ccc(F)cc2F)C[C@H](C)[C@@]1(O)c1ccccc1.Cl [Example 31, (3R,4R,5S)-1-{[(3S,4R)-4-(2,4-difluorophenyl)-1-pyridin-2-ylpyrrolidin-3-yl]carbonyl}-3,5-dimethyl-4-phenylpiperidin-4-ol hydrochloride] |  |
| 9 | 0.667 | C[C@@H]1CN(C(=O)[C@@H]2CNC[C@H]2c2ccc(F)cc2F)C[C@H](C)[C@@]1(O)c1ccc(F)cc1.Cl [Example 12, (3R,4R,5S)-1-{[(3S,4R)-4-(2,4-difluorophenyl)pyrrolidin-3-yl]carbonyl}-4-(4-fluorophenyl)-3,5-dimethylpiperidin-4-ol hydrochloride] |  |
